# Assay results: ChEMBL document CHEMBL1147259, “The structure of Palau'amide, a potent cytotoxin from a species of the marine cyanobacterium Lyngbya” (J Nat Prod, 2003)
# Test system: KB
# Assay: Cytotoxicity against human KB cells
# Assay type: functional, cell-based
smiles,measurement,value
C#CCCC[C@@H](O)[C@@H](C)[C@@H]1C/C=C(\C)C(=O)O[C@H](CC(C)C)C(=O)N[C@@H](C)C(=O)N(C)[C@H](Cc2ccccc2)C(=O)N(C)CC(=O)N[C@H]([C@H](C)CC)C(=O)N(C)[C@@H](C)C(=O)O1 [PALAU'AMIDE],IC50,13 nM
